Results: publication PMC5541792, “Simultaneous Determination of 11 Compounds in Gualou Guizhi Granule and Pharmacokinetics Study by UPLC-MS/MS” (Journal of Analytical Methods in Chemistry, 2017)

Legend:
[1] = Stability of analytes in rat plasma samples (method validation); format: in vitro ADME; details: n = 6; for Autosampler stability (24 h) Mean: 4°C for 24 h; for Stability (24 h at room temperature) Mean: 25°C for 24 h; for Freeze-thaw stability (3 cycles) Mean: three freeze-thaw cycles at −80°C
Procedure: Stability of the analytes from plasma samples was performed by determining three different concentrations (low, middle, and high samples) in six replicates under different conditions. It included short-term stability which was assessed by keeping samples at room temperature (25°C) for 24 h, stability which was measured using samples stored at 4°C for 24 h, and freeze-thaw stability that was determined after three freeze-thaw cycles at −80°C.

[2] = Pharmacokinetic study in rats after oral administration of GLGZG (UPLC-MS/MS of plasma); format: in vivo, rat; details: for AUC(0–∞) / Tmax / MRT inf / half-life / Vd/F: rat plasma, male SD rats, oral GLGZG 3.6 g·(kg·day)^−1, n = 6; for MRT inf: read-out: MRT(0–∞) (converted); for half-life: read-out: T 1/2z; for Vd/F: read-out: Vz/F; for Plasma concentration-time behaviour (in words): rat plasma after oral GLGZG
Procedure: Chromatographic separation was performed on an Waters CORTECS C18 (2.1 × 100 mm, 1.6 μm) with the column temperature at 45°C. The mobile phase was composed of 0.1% formic acid in water (A) and acetonitrile (B) with a gradient program (0–0.5 min from 8% to 10% B; 0.5–2.5 min from 10% to 15% B; 2.5–4.0 min from 15% to 60% B; 4.0–5.0 min from 60% to 95% B; 5.0–6.5 min 95% B). The flow rate was 0.25 mL/min and the injection volume was 1 μL.
Mass spectrometry was operated using a Waters (Milford, MA) Xevo TQMS with an electrospray ion source (ESI) in the negative ion multiple reaction monitoring (MRM) mode. The other detailed MS parameters were as follows: drying gas: N2 (purity of 99.9%), 15 L/min, nebulizing gas: 50 L/min, capillary voltage: 2.5 kv.
Plasma samples (100 μL of plasma) and IS working solutions (10 μL of swertiamarin, kaempferol-3-O-rutinoside, and ginsenoside Rb1) were combined and briefly vortex-mixed for 3 min followed by the addition of 4-fold acetonitrile. Then the mixture was centrifuged at 12000 rpm for 10 min. The supernatant was transferred to a clean tube and concentrated up to dryness; the residue was dissolved in 100 μL 50% methanol. Finally, 1 μL aliquot was injected into UPLC-MS/MS system for analysis.
Six male SD rats, weighing 250 ± 20 g, were provided by Experimental Animal Research Center of Fujian TCM University (Fuzhou, China). And they were housed at controlled environmental conditions (temperature: 23 ± 2°C, relative humidity: 55 ± 10%) with free access to standard laboratory food and water. The rats were fasted for 12 h but with access to water before being given GLGZG (3.6 g·(kg·day)^−1). Blood samples of 0.3 mL were collected in heparin containing tubes from epicanthic veins of rats by capillary tube before dose (0 h) and at 5 min, 10 min, 20 min, 0.5 h, 1 h, 1.5 h, 2 h, 3 h, 6 h, 9 h, and 12 h. Then they were centrifuged at 12000 rpm for 10 min. The supernatant liquor was collected and frozen at −20°C until use.
The validated UPLC-MS/MS method was successfully applied to the PK studies of eleven analytes following oral administration of GLGZG to individual male rats (n = 6). The main pharmacokinetic parameters were summarized in Table 8 and the mean plasma concentration-time profiles of the eleven analytes were illustrated in Figure 3.

[3] = middle QC nominal concentration

SMILES	Autosampler stability (24 h) Mean ([1]; high QC nominal concentration)	Autosampler stability (24 h) Mean ([1]; low QC nominal concentration)	Autosampler stability (24 h) Mean [1, 3]	Stability (24 h at room temperature) Mean ([1]; high QC nominal concentration)	Stability (24 h at room temperature) Mean ([1]; low QC nominal concentration)	Stability (24 h at room temperature) Mean [1, 3]	Freeze-thaw stability (3 cycles) Mean ([1]; high QC nominal concentration)	Freeze-thaw stability (3 cycles) Mean ([1]; low QC nominal concentration)	Freeze-thaw stability (3 cycles) Mean [1, 3]	AUC(0–∞) [2]	Tmax [2]	MRT inf [2]	half-life [2]	Vd/F [2]	Plasma concentration-time behaviour (in words) [2]
CC12CC(O)C3CC1(OC1OC(CO)C(O)C(O)C1O)C3(COC(=O)c1ccccc1)C(=O)O2 (stereo not drawn) [Albiflorin, albiflorin]	107.72%	97.93%	111.49%	108.45%	94.78%	93.66%	98.89%	99.77%	108.14%	1263.37 ± 306.91 mg·L/min	60 min	3.59 h	128 ± 35.7 min	2.67 ± 0.87 L/kg	–
CC1(C)[C@@H](O)CC[C@]2(C)[C@H]3C(=O)C=C4[C@@H]5C[C@@](C)(C(=O)O)CC[C@]5(C)CC[C@@]4(C)[C@]3(C)CC[C@@H]12 [Glycyrrhetinic acid, glycyrrhetinic acid]	–	–	–	–	–	–	–	–	–	2041.10 ± 706.58 mg·L/min	600 min	11.8 h	132 ± 28.3 min	–	–
CC1(C)[C@@H](O[C@H]2O[C@H](C(=O)O)[C@@H](O)[C@H](O)[C@H]2O[C@@H]2O[C@H](C(=O)O)[C@@H](O)[C@H](O)[C@H]2O)CC[C@]2(C)[C@H]3C(=O)C=C4[C@@H]5C[C@@](C)(C(=O)O)CC[C@]5(C)CC[C@@]4(C)[C@]3(C)CC[C@@H]12 [Glycyrrhizic acid, glycyrrhizic acid]	–	97.71%	92.82%	94.94%	96.05%	92.18%	98.20%	98.31%	108.78%	1262.61 ± 158.73 mg·L/min	54 min	4.4 h	172 ± 33.7 min	3.92 ± 1.44 L/kg	double-peak phenomenon
O=C(/C=C/c1ccc(O)cc1)c1ccc(O)cc1O [Isoliquiritigenin, isoliquiritigenin]	108.30%	106.19%	91.71%	–	99.77%	93.66%	109.21%	99.28%	107.70%	8.52 ± 0.98 mg·L/min	30 min	4.76 h	204 ± 40.5 min	700 ± 187 L/kg	low in the blood
O=C(/C=C/c1ccc(O[C@@H]2O[C@H](CO)[C@@H](O)[C@H](O)[C@H]2O)cc1)c1ccc(O)cc1O [Isoliquiritin, isoliquiritin]	95.62%	–	97.14%	–	–	99.28%	108.88%	98.98%	94.03%	27.17 ± 2.69 mg·L/min	28.3 min	5.66 h	276 ± 51.9 min	297 ± 70 L/kg	–
O=C1C[C@@H](c2ccc(O)cc2)Oc2cc(O)ccc21 [Liquiritigenin, liquiritigenin]	97.16%	98.45%	93.53%	97.03%	–	–	–	–	–	20.38 ± 4.30 mg·L/min	26.7 min	4.92 h	232 ± 28.6 min	341 ± 73.6 L/kg	–
O=C1C[C@@H](c2ccc(O[C@@H]3O[C@H](CO)[C@@H](O)[C@H](O)[C@H]3O)cc2)Oc2cc(O)ccc21 [Liquiritin, liquiritin]	90.84%	–	92.30%	106.73%	95.70%	–	97.91%	101.75%	109.75%	54.87 ± 14.40 mg·L/min	–	5.93 h	309 ± 66.4 min	167 ± 35.9 L/kg	–
C[C@@]12C[C@@]3(O)O[C@@H](O1)[C@]1(COC(=O)c4ccccc4)[C@H]3C[C@@]12O[C@@H]1O[C@H](CO)[C@@H](O)[C@H](O)[C@H]1O [Paeoniflorin, paeoniflorin]	113.81%	103.46%	98.29%	109.75%	105.66%	91.25%	–	97.71%	92.82%	904.73 ± 317.76 mg·L/min	80 min	3.93 h	143 ± 30.1 min	6.31 ± 1.63 L/kg	–
